A word on the AUC(0-t): it is the area under the concentration-time curve up to a stated or last time point. As a reminder, the IC50 is the concentration that inhibits the measured activity by half.

One data set is described as follows: in vivo. Conditions: male, CD-IGS, rat, po. The protocol: 7-Day Exploratory Toxicology Studies in Male Rats. Methods. Male CD-IGS rats (n=5/group for toxicologic assessment; n=4/group for toxicokinetic assessment) were dosed once daily by oral gavage (10 mL/kg) with vehicle (0.5% HPMC/0.25% Tween-80 in 50 mM citrate, pH 2.6-2.8) or test articles (Compound A or Compound 1) at 100, 300 or 1000 mg/kg/day for 7 consecutive days. Blood samples for toxicokinetics were collected on Days 1 and 7. […] Body weight was recorded at randomization, prior to dosing on Days 1-7 and prior to necropsy. Samples for hematology and serum chemistry analyses were collected on Day 8, approximately 24 h after the last dose. Rats were euthanized on Day 8 for necropsy. Anatomic pathology evaluation consisted of gross observation, organ weight and histopathologic examination of select tissues.

The test system of data set [1] is unstimulated primary human PBMCs. Nature of the data set: Anti-proliferative counter-screen (CellTiter-Glo, 72 h). Type of data set: cell-based. As to conditions: PBMC.
Another data set has as its system NCI-H929. Nature of the data set: Coculture of compound-treated anti-CD3-activated PBMCs with untreated myeloma cells. The format is cell-based. Conditions: Homo sapiens, T:E 1:5, 24 h, read-out: IC50 tumor cell lysis by compound-treated PBMCs. The procedure: (§1) Coculture Assays with Compound-treated Human Peripheral Blood Mononuclear Cells and Untreated Myeloma Cell Lines. Methods: Cell Culture. All myeloma cell lines were kept in log phase, and cell density and viability were monitored by trypan blue exclusion using the Vi-CELL XR cell viability analyzer.
(§2) PBMC Treatment Assay Procedure. Ninety-six-well dishes were pre-coated with anti-CD3 antibody (OKT3, 3 μg/mL) and incubated at 4° C. overnight before the start of the experiment. Frozen PBMC donors, were thawed at 37° C. for 2 minutes in RPMI medium with 10% FBS and cell counts and viability were measured on the Vi-CELL® (Beckman Coulter). Peripheral blood mononuclear cells were washed and diluted to 1×10^6 cells/mL and dispensed to the compound-treated plates in a total volume of 200 μL. Cells were incubated with compounds for 2 h before being transferred onto anti-CD3-coated plates and incubated for an additional 72 h at 37° C. After 72 h, the PBMCs were centrifuged, and cells were washed twice in RPMI medium+10% FBS. […] Peripheral blood mononuclear cells were counted and added to the MM cells at a target:effector (T:E) ratio of 1:5. After 24 h co-culture, specific target cell lysis by PBMCs was measured using Annexin V-AF647 and 7-AAD according to manufacturer's instructions and samples were run on the Attune NxT Cytometer (Thermo Fisher).

Another data set concerns H929-1051. The description is as above. Type of data set: cell-based. As to conditions: Homo sapiens, untreated H929-1051, T:E 1:5, 24 h, read-out: IC50 tumor cell lysis by compound-treated PBMCs. The protocol: as §1, §2
Data set [2] concerns lenalidomide-resistant NCI-H929 (H929-1051) multiple myeloma/plasmacytoma tumors. The data set is described as follows: H929-1051 xenograft, Compound 2 alone and with bortezomib. Type of data set: in vivo, mouse.
The test system of the next data set is H929-1051 xenograft. Nature of the data set: Lenalidomide-resistant H929-1051 xenograft, continuous QD dosing. The format is in vivo, mouse. The source says:
FIG. 4. Antitumor activity of Compound 2 with continuous dosing in lenalidomide-resistant H929-1051 xenograft model. Female SCID mice were inoculated with 10×10^6 H929-1051 tumor cells into the right flank. Mice were randomized into treatment groups (n=10/group) at the time of treatment initiation. Test article treatment started on Day 14 when the tumors were approximately 120 mm^3.
Antitumor Activity of Compound 2 in Lenalidomide-resistant Multiple Myeloma Xenograft Model. The purpose of the study was to test the single agent antitumor activity of Compound 2 in an H929-1051 xenograft model with once daily dosing (QD) at 1, 3, 10, and 30 mg/kg.

Another data set concerns MM cell lines. Nature of the data set: Daratumumab-mediated ADCC assay. The format is cell-based, human. The procedure:
ADCC Assay: The effect of Compound 2 or pomalidomide on daratumumab-mediated ADCC was evaluated in vitro by flow cytometry in a panel of MM cell lines. The NK cells were cultured overnight in NK culture medium containing 10 U/mL of recombinant human IL-2 before the start of the assay. The NK cells were washed and resuspended back in NK cell culture medium at 3.75×10^6 cells/mL. The MM cells were pretreated with sub-lethal concentrations of Compound 2 or pomalidomide for 72 h before using in the ADCC assay. The MM cells were washed and labelled with Tag-it Violet™ Proliferation and Cell Tracking Dye according to the manufacturer's instructions, followed by resuspension in NK culture medium at a concentration of 0.75×10^6 cells/mL. The ADCC assay was performed in triplicate with an effector to tumor ratio of 10:1 in a 96 well plate. MM cells (10 μL) were mixed with 10 μL of 2× concentration of daratumumab in the wells before the addition of 20 μL of NK cells. The co-cultures were incubated at 37° C. for 3 h followed by the addition of 50 μL of 7-AAD solution at room temperature for 15 minutes. The analysis was performed on a BD Celesta flow cytometer.

Turning to `N#Cc1ccc(N2CCN(Cc3ccc(COc4cccc5c4CN(C4CCC(=O)NC4=O)C5=O)cc3)CC2)c(F)c1` (racemic) [Compound 1, 4-(4-(4-(((2-(2,6-dioxopiperidin-3-yl)-1-oxoisoindolin-4-yl)oxy)methyl)benzyl)piperazin-1-yl)-3-fluorobenzonitrile], the results for the AUC(0-t) in the data set “in vivo” (100 mg/kg/day), in “in vivo” (300 mg/kg/day) and in the data set “in vivo” (1000 mg/kg/day) were 143 µM·h, 514 µM·h and 1220 µM·h, respectively. Besides, the “dose at which minimal decreases in body weight gain were observed” value in the data set “in vivo” (7 days) is reported as not below 300 mg/kg.

Consider `N#Cc1ccc(N2CCN(Cc3ccc(COc4cccc5c4CN([C@H]4CCC(=O)NC4=O)C5=O)cc3)CC2)c(F)c1` [Compound 2, (S)-4-(4-(4-(((2-(2,6-dioxopiperidin-3-yl)-1-oxoisoindolin-4-yl)oxy)methyl)benzyl)piperazin-1-yl)-3-fluorobenzonitrile], for which the IC50 is more than 10000 nM in data set [1], 5 nM in the data set on NCI-H929 and 0.2 nM in the data set on H929-1051. In addition, the “tumor volume reduction (TVR)” value in data set [2] (Compound 2 1 mg/kg qd×3 in combination with bortezomib 1 mg/kg single dose, day 50) is 98%. The “combination antitumor activity (fractional product method)” value in data set [2] (Compound 2 1 mg/kg with second agent 1 mg/kg) is given as “synergistic”. In addition, in data set [2] (combination of Compound 2 and bortezomib, by day 53), the “animals that became tumor free and remained tumor free” value is 7 out of 9. Moreover, the “tumor growth inhibition / tumor volume reduction (TVR)” value in data set [2] (single agent Compound 2 1 mg/kg qd×3 (days 31-33), day 50) was found to be 44%. For the same molecule, the “day by which tumors reached approximately 2000 mm^3” value in data set [2] (single agent, 1 mg/kg) was found to be 58 days. Moreover, the tumor volume reduction in the data set on H929-1051 xenograft (1 mg/kg QD) worked out at 75%; in the data set on H929-1051 xenograft (3 mg/kg QD), 86%; with H929-1051 xenograft (10 mg/kg QD), 84%; in the data set with H929-1051 xenograft (30 mg/kg QD), 85%. In addition, the “daratumumab-mediated ADCC of pretreated MM cells” value in the data set on MM cell lines (72 h pretreatment, sub-lethal concentrations, NK cells E:T 10:1) is “higher degree of tumor lysis with daratumumab compared to untreated cells”. Further, in the data set with MM cell lines (ARH-77 cell line), the “daratumumab-mediated ADCC” value is given as “enhanced ADCC”.
